Non-standard residues stand in square brackets, D forms with d. No end group written: not given here. Hyp = O=C(O)[C@@H]1C[C@@H](O)CN1
Columns and labels:
[1] = Binding of peptides to synthetic melanin (Tricine-SDS-PAGE analysis); details: for Binding of peptides on synthetic melanin, Mel + peptide 2 hours at pH 7.4: filtered (10 kDa) preformed melanin; for Binding of peptides on synthetic melanin, Mel + peptide 2 hours at pH 7.4 / Binding of peptides on synthetic melanin, Mel + peptide 18 hours at pH 7.4 / Binding of peptides on synthetic melanin, Mel + peptide 18 hours at pH 8.5 / Binding of peptides on synthetic melanin, Mel + peptide 10 minutes / Binding of peptides on synthetic melanin, Mel + peptide 2 hours / Binding of peptides on synthetic melanin, Mel + peptide 18 hours: peptide/L-Dopa 1/4; for Binding of peptides on synthetic melanin, Mel + peptide 18 hours at pH 7.4 / Binding of peptides on synthetic melanin, Mel + peptide 18 hours at pH 8.5: filtered preformed melanin; for Binding of peptides on synthetic melanin, Mel + peptide: L-Dopa polymerized first, peptide added (1/4); for Binding of peptides on synthetic melanin, Peptide-Mel: peptide/L-Dopa 1/4 mixed, then 2 hours at pH 8.5 and 60° C.; for Binding of peptides on synthetic melanin, Mel + peptide 10 minutes / Binding of peptides on synthetic melanin, Mel + peptide 2 hours / Binding of peptides on synthetic melanin, Mel + peptide 18 hours: filtered preformed melanin at pH 7.5; for peptide binding to melanin: binding-promoting amino-acid at NH2-terminal vs COOH terminal end
Source text: The binding of the peptide to the melanin can be verified by Tricine-SDS-PAGE analysis as described in Carpentier; 2017 (op. cit.). Briefly, samples (peptide-Mel or peptide alone) are loaded on acrylamide gels. Following electrophoresis, the gels are stained with Coomassie Brilliant Blue R-250, allowing the quantification of the free peptide in the gel. The binding of peptides to melanin can be expressed as the ratio: [amount of unbound peptide in samples Peptide-Mel/amount of peptides in control samples containing peptides alone.
Peptides were mixed with L-Dopa (weight ratio peptide/L-Dopa=1/4 and 1/6 for gp100 and EphA2, respectively) then incubated for 2 hours at pH 8.5 and 60° C. under agitation to ensure oxygenation of the solution to generate nanoparticles of melanin-bound peptides (Peptide-Mel). Alternatively, L-Dopa alone (0.8 mg/ml) was polymerized into melanin for 2 h at pH 8.5 and 60° C. under agitation, before the peptides (weight ratio peptide/L-Dopa=1/4 and 1/6 for gp100 and EphA2, respectively) were added to the solution (Mel+peptide). Tricine-SDS-PAGE analysis was performed as described in Carpentier; 2017 (op. cit.). Briefly, samples (peptide-Mel or peptide alone) were loaded on acrylamide gels. Following electrophoresis, the gels were stained with Coomassie Brilliant Blue R-250 and imaged with the ChemiDoc XRS+ system (Bio-Rad Laboratory), allowing the quantification of the free peptide in the gel. The binding of peptides to melanin was expressed as the ratio: [amount of unbound peptide in samples Peptide-Mel/amount of peptides in control samples containing peptides alone]
First column (Peptide-Mel): L-Dopa (0.8 mg/ml) was mixed with peptides (weight ratio peptide/L-Dopa=1/4) then incubated for 2 hours at pH 8.5 and 60° C. to generate nanoparticles of melanin-bound peptides. Alternatively (second column; Mel+peptide), L-Dopa alone (0.8 mg/ml) was first polymerized into melanin for 2 h at pH 8.5 and 60° C. under vigorous agitation, before the peptides (weight ratio peptide/L-Dopa=1/4) were added to the solution and incubated for 2 hours at room temperature. In both cases, the percentage of peptides that bound to melanin was then quantified with SPS-page analysis, as described in table 1. (ND=not done)
(§1) L-Dopa (0.8 mg/ml) underwent an oxidative polymerization at pH 8.5 in aerobic conditions for 2 hours at 60° C. The reaction mixture was then filtered on a 10 kDa filter, and the retentate containing the synthetic melanin was resuspended at pH 7.5 in phosphate buffer. Peptides were then added (at the weight ratio peptide/L-Dopa=1/4) and the mixture was incubated for various periods of time and or pH. The percentage of peptides that bound to melanin was then quantified with SPS-page analysis, as described in table 1. (ND=not done).
as §1, with “8.5 and 60° C.” for “8.5 in aerobic conditions”, “2 hours.” for “2 hours at 60° C.”, “of time. Binding” for “of time and or pH. The percentage”, “of the” for “of”, “peptides” for “peptides that bound to melanin”, “(ND=not done)” for “(ND=not done).”

[2] = tested on: humanized female HLADRB1* 0101/HLA-A*0201 (HHD DR1) mice; experiment: CTL response (IFNg-SFCs of re-stimulated splenocytes) after subcutaneous immunization in humanized mice; format: in vivo; details: 10 μg/mouse subcutaneous, day 8, more than 10 spots is positive
Experimental: CTL response was evaluated after subcutaneous immunizations in humanized female HLADRB1* 0101/HLA-A*0201 (HHD DR1) mice.
L-Dopa (0.8 mg/ml) underwent an oxidative polymerization at pH 8.5 in aerobic conditions for 2 hours at 60° C. The reaction mixture was then filtered on a 10 kDa filter, and the retentate containing the synthetic melanin was resuspended at pH 7.5 in phosphate buffer.
Peptides (A10, SEQ ID NO: 29; A8, SEQ ID NO: 34; A30, SEQ ID NO: 31, 10 μg/mouse) were then added (at the weight ratio peptide/L-Dopa=1/4).
Mixtures (either Mel+peptides or Peptides alone) were rapidly (<1 hour) used for subcutaneous immunizations in mice. Phosphorothioate oligonucleotide CpG-28 (5′-[…], SEQ ID NO: 21) was added to vaccine formulations (10 μg/mouse) just before the immunizations. Mice were sacrificed on day 8 and the CTL response was performed as described in Carpentier; 2017. Briefly, splenocytes were re-stimulated in vitro with the corresponding peptide (non-conjugated to melanin) and the numbers of IFNg-SFCs (Spot forming cells) were measured and expressed as Mean+/−S.E.M. (n=4 to 8 mice/group). More than 10 spots is considered as a positive immune response

Substance | Binding of peptides on synthetic melanin, Mel + peptide 2 hours at pH 7.4 [1] | Binding of peptides on synthetic melanin, Mel + peptide 18 hours at pH 7.4 [1] | Binding of peptides on synthetic melanin, Mel + peptide 18 hours at pH 8.5 [1] | Binding of peptides on synthetic melanin, Mel + peptide ([1]; 2 hours at room temperature) | Binding of peptides on synthetic melanin, Peptide-Mel [1] | further results
Acetyl-K SIYRYYGL (Ac-KSIYRYYGL) [SEQ ID NO: 7] | 0% | 31% | 62% | – | – | –
Acetyl-R C SIYRYYGL (Ac-RCSIYRYYGL) [SEQ ID NO: 8] | 53% | 46% | 42% | 53% | 74% | –
Acetyl-R F SIYRYYGL (Ac-RFSIYRYYGL) [SEQ ID NO: 13] | 0% | – | – | 0% | 5% | –
Acetyl-R H SIYRYYGL (Ac-RHSIYRYYGL) [SEQ ID NO: 9] | – | – | – | – | 60% | –
Acetyl-R M SIYRYYGL (Ac-RMSIYRYYGL) [SEQ ID NO: 11] | 0% | 13% | 32% | – | – | –
Acetyl-R S SIYRYYGL (Ac-RSSIYRYYGL) [SEQ ID NO: 10] | 0% | 12% | – | – | – | –
Acetyl-R SIYRYYGL (Ac-RSIYRYYGL) [SEQ ID NO: 4] | 17% | 2% | 0% | 17% | 0% | melanin binding (in words), Peptide-Mel ([1]; peptide mixed with L-Dopa, 2 hours at pH 8.5): No binding
Acetyl-R T SIYRYYGL (Ac-RTSIYRYYGL) [SEQ ID NO: 12] | 0% | – | – | 0% | 10% | –
Acetyl-R W SIYRYYGL (Ac-RWSIYRYYGL) [SEQ ID NO: 14] | 0% | – | – | 0% | 56% | –
C KVPRNQDWL (CKVPRNQDWL; Modified gp100 peptide) [SEQ ID NO: 17] | – | – | – | – | – | Binding of peptides on synthetic melanin, Mel + peptide 10 minutes [1]: 9%; Binding of peptides on synthetic melanin, Mel + peptide 2 hours [1]: 54%; Binding of peptides on synthetic melanin, Mel + peptide 18 hours [1]: 99%; binding to melanin (in words), cysteine in oxidized or reduced state ([1]; preformed filtered melanin, 2 hours at room temperature): Binding was observed in both cases
CKSVWSKLQSIGIRQH (Modified UCP2 Peptide) [A10] | – | – | – | – | – | numbers of IFNg-SFCs (Spot forming cells), Mean ([2]; Mel + pept + CpG-28): 150; numbers of IFNg-SFCs (Spot forming cells), Mean ([2]; Pept + CpG-28): 18
CKVFAGIPTV (Modified PTPRZ1 Epitope) [A30] | – | – | – | – | – | numbers of IFNg-SFCs (Spot forming cells), Mean ([2]; Mel + pept + CpG-28): 182
CKVFAGIPTVASDTV (Modified PTPRZ1 Epitope) [A8] | – | – | – | – | – | numbers of IFNg-SFCs (Spot forming cells), Mean ([2]; Mel + pept + CpG-28): 29; numbers of IFNg-SFCs (Spot forming cells), Mean ([2]; Pept + CpG-28): 5
HydroxP KVPRNQDWL ([Hyp]KVPRNQDWL) [SEQ ID NO: 16] | – | – | – | – | – | Binding of peptides on synthetic melanin, Mel + peptide 10 minutes [1]: 12%; Binding of peptides on synthetic melanin, Mel + peptide 2 hours [1]: 35%; Binding of peptides on synthetic melanin, Mel + peptide 18 hours [1]: 100%
HydroxyP SIYRYYGL ([Hyp]SIYRYYGL) [SEQ ID NO: 6] | 23% | 39% | 74% | 23% | 95% | –
M KVPRNQDWL (MKVPRNQDWL; Modified gp100 peptide) [SEQ ID NO: 18] | – | – | – | – | – | Binding of peptides on synthetic melanin, Mel + peptide 10 minutes [1]: 7%; Binding of peptides on synthetic melanin, Mel + peptide 2 hours [1]: 43%; Binding of peptides on synthetic melanin, Mel + peptide 18 hours [1]: 100%
P KVPRNQDWL (PKVPRNQDWL; Modified gp100 peptide) [SEQ ID NO: 15] | – | – | – | – | – | Binding of peptides on synthetic melanin, Mel + peptide 10 minutes [1]: 13%; Binding of peptides on synthetic melanin, Mel + peptide 2 hours [1]: 11%; Binding of peptides on synthetic melanin, Mel + peptide 18 hours [1]: 100%
P SIYRYYGL (PSIYRYYGL; Modified test peptide) [SEQ ID NO: 5] | 7% | 22% | 41% | 7% | 87% | –
SIYRYYGL [SEQ ID NO: 3, reference compound] | 0% | 28% | 31% | 0% | 90% | –
VYDFFVWL-X [SEQ ID NO: 20] | – | – | – | – | – | peptide binding to melanin [1]: 55%
X-VYDFFVWL [SEQ ID NO: 19] | – | – | – | – | – | peptide binding to melanin [1]: 51%
